The text below walks through data of patent US9169259B2, “Imidazopyridazine compounds” (Hoffmann-La Roche Inc., priority 2011, dated 2015).

Each structure is given as a SMILES string.

This assay has as its target recombinant human SYK360-635 (Homo sapiens (Human), UniProt P43405). As to the kind of experiment: SYK kinase assay (33P ATP filtration, IC50 of SYK inhibition). The format is biochemical. The following applies: truncated SYK aa 360-635 0.5 nM, ATP 20 μM, peptide 5 μM, 30° C. 15 min; read-out: ENZYME_FILTRATION_IC50. Here is the method: Determination of IC50 of Spleen Tyrosine Kinase (SYK) Inhibition:
SYK kinase assay is a standard kinase assay adapted to a 96 well plate format. This assay is performed in 96-well format for IC50 determination with […] which represented 10 half log dilutions and a 40 μL reaction volume. The assay measures the incorporation of radiolabeled ^33P γATP into an N-terminally biotinylated peptide substrate, derived from naturally occurring phosphoacceptor consensus sequence (Biotin-11aa DY*E). Phosphorylated products were detected upon termination of reactions with EDTA and the addition of Streptavidin coated beads.
Assay plates: 96-well MultiScreen 0.65 um filter plates (Millipore Cat. No.: MADVNOB10)
final concentration: 50 mM HEPES pH7.5
BSA: Bovine Serum Albumin Fraction V, fatty acid free (Roche Diagnostics GmbH, Cat. No. 9100221) diluted to a final concentration of 0.1%
Assay Dilution Buffer (ADB): 50 mM HEPES, 0.1 mM EGTA, 0.1 mM Na Vanadate, 0.1 mM β-glycerophosphate, 10 mM MgCl2, 1 mM DTT, 0.1% BSA, pH 7.5
Bead wash buffer: 10 g/L PBS (Phosphate buffered saline) with 2M NaCl+1% phosphoric acid.
DMSO and the mixture was incubated for 10 min at RT.
The kinase reaction was initiated by the addition of 10 μL 4× substrate cocktail containing the DYE peptide substrate [0 or 5 μM], ATP [20 μM] and ^33PγATP [2 μCi/r×n]. After incubation at 30° C. for 15 min, the reaction was terminated by the transfer of 25 μL of the reaction sample to a 96 well 0.65 μm Millipore MADVNOB membrane/plate containing 200 μL 5 mM EDTA and 20% Streptavidine coated beads in PBS.
After the last wash membrane/plates were transferred to an adaptor plate, heat dried for 15 min at 60° C., and 50 μL scintillation cocktail was added to each well and 4 h later the amount of radioactivity was counted in a top counter.

With `O=C(O)c1cccc(-c2cc(Nc3cccc(N4CC5CC5C4)n3)c3nccn3n2)c1` (stereo not drawn) [Example I-23, 3-{8-[6-(3-Aza-bicyclo[3.1.0]hex-3-yl)-pyridin-2-ylamino]-imidazo[1,2-b]pyridazin-6-yl}-benzoic acid], the IC50 turned out to be 442 nM.
In the case of `O=C(O)c1cccc(-c2cc(Nc3cccc(N4CCCC4CO)n3)c3nccn3n2)c1` (stereo not drawn) [Example I-20, 3-{8-[6-(2-Hydroxymethyl-pyrrolidin-1-yl)-pyridin-2-ylamino]-imidazo[1,2-b]pyridazin-6-yl}-benzoic acid], the IC50 is 258 nM.
For `CC1CCCN1c1cccc(Nc2cc(-c3cccc(C#N)c3)nn3ccnc23)n1` (stereo not drawn) [Example I-80, 3-{8-[6-(2-Methyl-pyrrolidin-1-yl)-pyridin-2-ylamino]-imidazo[1,2-b]pyridazin-6-yl}-benzonitrile], the IC50 came out at 614 nM.
As to `CC(C)(C)C1CCN(c2cccc(Nc3cc(-c4cccc(C(N)=O)c4)nn4ccnc34)n2)C1` (stereo not drawn) [Example I-67, 3-{8-[6-(3-tert-Butyl-pyrrolidin-1-yl)-pyridin-2-ylamino]-imidazo[1,2-b]pyridazin-6-yl}-benzamide], the IC50 stood at 280 nM.
With `COc1ccc(Nc2cc(-c3cccc(C(=O)Nc4ccc5c(c4)CNC5=O)c3)nn3ccnc23)nc1OC` [Example I-56, 3-[8-(5,6-Dimethoxy-pyridin-2-ylamino)-imidazo[1,2-b]pyridazin-6-yl]-N-(1-oxo-2,3-dihydro-1H-isoindol-5-yl)-benzamide], the IC50 came to 593 nM.
The value for `CC1CCCN1c1cccc(Nc2cc(-c3ccc(C(=O)NCCc4ccncc4)cc3)nn3ccnc23)n1` (stereo not drawn) [Example I-16, 4-{8-[6-(2-Methyl-pyrrolidin-1-yl)-pyridin-2-ylamino]-imidazo[1,2-b]pyridazin-6-yl}-N-(2-pyridin-4-yl-ethyl)-benzamide] was 87.6 nM; that for `CNC(=O)c1ccc(NC(=O)c2cccc(-c3cc(Nc4ccc(OC)c(OC)n4)c4nccn4n3)c2)cc1` [Example I-96, 3-(8-(5,6-Dimethoxypyridin-2-ylamino)imidazo[1,2-b]pyridazin-6-yl)-N-(4-(methylcarbamoyl)phenyl)benzamide] was 103 nM; that for `C[C@H]1CCCN1c1cccc(Nc2cc(-c3ccc4ncsc4c3)nn3ccnc23)n1` [Example I-52, (6-Benzothiazol-6-yl-imidazo[1,2-b]pyridazin-8-yl)-[6-((S)-2-methyl-pyrrolidin-1-yl)-pyridin-2-yl]-amine] was 36.1 nM.
In the case of `CC1CCC(C)N1c1cccc(Nc2cc(-c3cccc(C(=O)O)c3)nn3ccnc23)n1` (stereo not drawn) [Example I-60, 3-{8-[6-(2,5-Dimethyl-pyrrolidin-1-yl)-pyridin-2-ylamino]-imidazo[1,2-b]pyridazin-6-yl}-benzoic acid], the IC50 came to 231 nM.
As for `COc1ccc(Nc2cc(-c3cccc(C(=O)O)c3)nn3ccnc23)nc1OC` [Example I-95, 3-[8-(5,6-Dimethoxy-pyridin-2-ylamino)-imidazo[1,2-b]pyridazin-6-yl]-benzoic acid], the figure is 949 nM.
As for `CC(=O)N1CCc2ccc(-c3cc(Nc4cccc(N5CCCC5C)n4)c4nccn4n3)cc2C1` (stereo not drawn) [Example I-64, 1-(7-{8-[6-(2-Methyl-pyrrolidin-1-yl)-pyridin-2-ylamino]-imidazo[1,2-b]pyridazin-6-yl}-3,4-dihydro-1H-isoquinolin-2-yl)-ethanone], the figure is 56.6 nM; as for `COc1cncc(-c2cc(Nc3cccc(N4CCCC4C)n3)c3nccn3n2)c1` (stereo not drawn) [Example I-82, [6-(5-Methoxy-pyridin-3-yl)-imidazo[1,2-b]pyridazin-8-yl]-[6-(2-methyl-pyrrolidin-1-yl)-pyridin-2-yl]-amine], 59.9 nM; as for `COc1ccc(Nc2cc(-c3ccc(C(=O)O)cc3)nn3ccnc23)nc1OC` [Example I-26, 4-[8-(5,6-Dimethoxy-pyridin-2-ylamino)-imidazo[1,2-b]pyridazin-6-yl]-benzoic acid], 265 nM.
For `CC1CCCN1c1cccc(Nc2cc(-c3cccc(C(=O)N4CCOCC4)c3)nn3ccnc23)n1` (stereo not drawn) [Example I-42, (3-{8-[6-(2-Methyl-pyrrolidin-1-yl)-pyridin-2-ylamino]-imidazo[1,2-b]pyridazin-6-yl}-phenyl)-morpholin-4-yl-methanone], the IC50 was 219 nM.
Consider `CC1(C)CCN(c2cccc(Nc3cc(-c4cccc(C(=O)O)c4)nn4ccnc34)n2)C1` [Example I-59, 3-{8-[6-(3,3-Dimethyl-pyrrolidin-1-yl)-pyridin-2-ylamino]-imidazo[1,2-b]pyridazin-6-yl}-benzoic acid], for which the IC50 amounted to 599 nM.
As for `CC1CCCN1c1cccc(Nc2cc(-c3ccc(C(=O)O)cc3)nn3ccnc23)n1` (stereo not drawn) [Example I-15, 4-{8-[6-(2-Methyl-pyrrolidin-1-yl)-pyridin-2-ylamino]-imidazo[1,2-b]pyridazin-6-yl}-benzoic acid], the IC50 was determined as 84.2 nM.
The value for `CCN(CC)CCOc1cccc(-c2cc(Nc3cccc(N4CCCC4C)n3)c3nccn3n2)c1` (stereo not drawn) [Example I-91, {6-[3-(2-Diethylamino-ethoxy)-phenyl]-imidazo[1,2-b]pyridazin-8-yl}-[6-(2-methyl-pyrrolidin-1-yl)-pyridin-2-yl]-amine] was 261 nM; that for `CC1CCCN1c1cccc(Nc2cc(-c3ccc(O)cc3)nn3ccnc23)n1` (stereo not drawn) [Example I-77, 4-{8-[6-(2-Methyl-pyrrolidin-1-yl)-pyridin-2-ylamino]-imidazo[1,2-b]pyridazin-6-yl}-phenol] was 63.9 nM.
The value for `CC1(C)CCN(c2cccc(Nc3cc(-c4cccc(C(=O)O)c4)nn4ccnc34)n2)CC1` [Example I-61, 3-[8-(4,4-Dimethyl-3,4,5,6-tetrahydro-2H-[1,2′]bipyridinyl-6′-ylamino)-imidazo[1,2-b]pyridazin-6-yl]-benzoic acid] was 1380 nM.
As for `COC(=O)c1cccc(-c2cc(Nc3cccc(N4CCCC4C)n3)c3nccn3n2)c1` (stereo not drawn) [Example I-8, 3-{8-[6-(2-Methyl-pyrrolidin-1-yl)-pyridin-2-ylamino]-imidazo[1,2-b]pyridazin-6-yl}-benzoic acid methyl ester], the figure is 478 nM; as for `CC(C)(C)C1CCN(c2cccc(Nc3cc(-c4cccc(C(=O)O)c4)nn4ccnc34)n2)C1` (stereo not drawn) [Example I-66, 3-{8-[6-(3-tert-Butyl-pyrrolidin-1-yl)-pyridin-2-ylamino]-imidazo[1,2-b]pyridazin-6-yl}-benzoic acid], 696 nM; as for `COc1ccc(Nc2cc(-c3ccc(C(=O)NCCc4cc[nH]c(=O)c4)cc3)nn3ccnc23)nc1OC` [Example I-28, 4-[8-(5,6-Dimethoxy-pyridin-2-ylamino)-imidazo[1,2-b]pyridazin-6-yl]-N-[2-(2-oxo-1,2-dihydro-pyridin-4-yl)-ethyl]-benzamide], 187 nM.
With `CC1CCCN1c1cccc(Nc2cc(-c3ccc4cn[nH]c4c3)nn3ccnc23)n1` (stereo not drawn) [Example I-19, [6-(1H-Indazol-6-yl)-imidazo[1,2-b]pyridazin-8-yl]-[6-(2-methyl-pyrrolidin-1-yl)-pyridin-2-yl]-amine], the IC50 is 75 nM.
As to `CC1CCCN1c1cccc(Nc2cc(-c3ccc(F)cc3)nn3ccnc23)n1` (stereo not drawn) [Example I-79, [6-(4-Fluoro-phenyl)-imidazo[1,2-b]pyridazin-8-yl]-[6-(2-methyl-pyrrolidin-1-yl)-pyridin-2-yl]-amine], the IC50 came to 488 nM.
